Test results as given in patent US10702568B2, “Compositions containing silymarin and sulfoalkyl ether cyclodextrin and methods of using the same” (UNIVERSITY OF KANSAS, priority 2015, dated 2020).
Converted amounts (≈) assume the structure as drawn.

What was measured:
Format in all cases: physicochemical
[1] = Mutual phase solubility study of Silymarin-CAPTISOL® complex (method A, method B)
Protocol: Two methods, method A and method B, were used to prepare the silymarin-CAPTISOL® complexes and the phase solubility of the various components in the complexes were measured and compared. The silymarin extract was obtained from Indena® (Indena Code: 9065110).
In method A, the Silymarin-CAPTISOL® complex was prepared through a hot extraction method. […] The filtrates were analyzed using HPLC for Taxifolin, Silychristin, Silydianin, Silybin A, Silybin B, Isosilybin A and Isosilybin B after appropriate dilution.
In method B, the Silymarin-CAPTISOL® complex was prepared by combining the CAPTISOL® and silymarin at ambient temperature: 120 mg of the extract was incorporated in 0 10, 20, 40, 60, 80 and 100 mM concentrations of CAPTISOL® solution in water. These samples were shook at room temperature for 3 days. At equilibrium, samples were centrifuged at 10,000 RPM and filtered using Millipore (0.22 μm) syringe filter. The filtrates were analyzed using HPLC for Taxifolin, Silychristin, Silydianin, Silybin A, Silybin B, Isosilybin A and Isosilybin B after appropriate dilution.
The solubility of the Silymarin-CAPTISOL® complexes prepared using method A and method B were measured.

[2] = Silymarin solubility at elevated temperatures (Example 3, HPLC); conditions: 160 mg silymarin in 1 ml 0.1 M CAPTISOL®, sealed vial, 70-75° C., about one hour
Protocol: The solubility of silymarin was also studied at elevated temperatures. The silymarin-water samples were prepared by adding 3.0 ml of deionized water or 3.0 ml of CAPTISOL® solution (0.05 M, 0.10 M, or 0.20 M) to 155 mg silymarin 80% in 5 ml Eppendorf tube, and the tubes were capped securely to minimize evaporation loss and submerged in a water bath at an elevated temperature (60° C. or 75° C.)). CAPTISOL® solutions were prepared by dissolving CAPTISOL® in water. The solution in the tube was stirred for a certain amount of time. The solution was then centrifuged for 5 min twice and the supernatant was diluted with 40% methanol for HPLC analysis. The silymarin CAPTISOL® samples were diluted by adding 10 μL supernatant sample to 990 μL diluent. The silymarin water samples were diluted by adding 100 μL supernatant sample to 900 μL diluent. The diluted samples were then analyzed using HPLC according to the procedures described in Example 1.
Saturated CAPTISOL® silymarin solutions were also prepared by adding 160 mg silymarin to 1 ml of 0.1 M CAPTISOL® solution in a sealed vial under mechanic stirring and the vial was kept in a water bath at 70-75° C. The solution became quickly saturated in about one hour. The solution was then cooled to room temperature and centrifuged, and the supernatant can then be used for preparing various formulations. […]

[3] = Log D of silymarin components (octanol/buffer, HPLC); conditions: octanol/universal buffer pH 7.4, 16 h shaking at room temperature; read-out: Log D (7.4 pH)
Protocol: (§1) Silymarin components including taxifolin, silydianin, silychristin, silybin A, silybin B, isosilybin A, and isosilybin B were tested for their solubility in water and also for their Log D value. The silymarin extract was obtained from Indena® (Indena Code: 9065110). The HPLC system consisted of Waters system equipped with performance PLUS inline degasser along dual λ absorbance detector set at 288 nm. The chromatographic separation of silymarin constituents was achieved on a Symmetry Shield RP18 column (150×4.6 mm, 5 μm); which was maintained at ambient room temperature conditions. The binary mobile phase system consisted of reservoir A (methanol: 10 mM ammonium acetate pH 5 [65:35 v/v]) and reservoir B (10 mM ammonium acetate, pH 5) were run as per gradient program (0-1.9 min: 25% A and 75% B; 2.0-14.9 min: 80% A and 20% B and 15-37.9 min: 80% A and 20% B and 38-40 min: 25% A and 75% B). The flow rate was 1 mL/min throughout the analytical run.
To determine the Log D of silymarin components, the silymarin extract (2 mg) was dissolved in 100% DMSO and then used for the experiment. Different buffers between pH ranges of 1.0 to 12 were prepared by using universal buffer stock containing 25 mM hydrochloric acid, 25 mM citric acid, 25 mM phosphoric acid, 30 mM boric acid and 20 mM sodium chloride. About 45 mL of universal buffer was titrated with Sodium hydroxide (5M) to obtain desired pH. A 10 μL of silymarin stock solution was spiked into Eppendorf tube containing 500 μL each of a buffer and presaturated octanol. This mixture was vortexed for 5 minutes and kept for shaking at room temperature. After 16 h, the mixture was centrifuged at 10,000 RPM for 30 minutes. After centrifugation buffer and octanol phases were separated, both phases were diluted with acetonitrile (1:1) and subject to HPLC analysis for quantitation of individual components of silymarin. The Log D values of each compound at a pH was determined by Log D (pH)=Log [Organic (peak area)/Aqueous (peak area)].

[4] = Solubility of silymarin components in water (Example 10, HPLC); conditions: water; component of Indena silymarin extract, HPLC; read-out: Solubility in water
Protocol: as §1

**Q.** What does the source list for `O=C1c2c(O)cc(O)cc2O[C@H](c2ccc(O)c(O)c2)[C@H]1O` [Taxifolin]?
**A.** number of fold increase in solubility ([1]; CAPTISOL® 10 mM, Method A (hot extraction 70-75° C., 60 minutes)): 1.95 fold; number of fold increase in solubility ([1]; CAPTISOL® 10 mM, Method B (ambient temperature, 3 days)): 1.97 fold; number of fold increase in solubility ([1]; CAPTISOL® 20 mM, Method A (hot extraction 70-75° C., 60 minutes)): 3.32 fold; number of fold increase in solubility ([1]; CAPTISOL® 20 mM, Method B (ambient temperature, 3 days)): 3.06 fold; number of fold increase in solubility ([1]; CAPTISOL® 40 mM, Method A (hot extraction 70-75° C., 60 minutes)): 3.54 fold; number of fold increase in solubility ([1]; CAPTISOL® 40 mM, Method B (ambient temperature, 3 days)): 3.39 fold; number of fold increase in solubility ([1]; CAPTISOL® 60 mM, Method A (hot extraction 70-75° C., 60 minutes)): 4.26 fold; number of fold increase in solubility ([1]; CAPTISOL® 60 mM, Method B (ambient temperature, 3 days)): 3.48 fold; number of fold increase in solubility ([1]; CAPTISOL® 80 mM, Method A (hot extraction 70-75° C., 60 minutes)): 4.51 fold; number of fold increase in solubility ([1]; CAPTISOL® 80 mM, Method B (ambient temperature, 3 days)): 3.47 fold; number of fold increase in solubility ([1]; CAPTISOL® 100 mM, Method A (hot extraction 70-75° C., 60 minutes)): 4.77 fold; number of fold increase in solubility ([1]; CAPTISOL® 100 mM, Method B (ambient temperature, 3 days)): 3.72 fold; concentration fold higher than in the water silymarin sample [2]: 5 fold; logD at 16 h [3]: 1.35; solubility [4]: 550 µg/mL (≈ 1810 µM)
